The values that follow come from publication PMC5055294 (PLoS ONE, 2016).

Test [1] relates to CCRL2. The settings on record: cited from earlier work; for calcium mobilization and chemotaxis through CCRL2: ref [20], not confirmed by other groups [23]. From the text: (§1) […]. CMKLR1 is coupled to the Gi/o family of G proteins and in cells ...
(Calcium flux is commonly read through the fluorescence of an indicator in the cells.)

The subject of test [2] is CCRL2. As to the kind of experiment: G protein BRET assay, CCRL2. The format is cell-based, human. To be noted: CCRL2, HEK293T; 100 nM chemerin, 1 minute. Here is the method:
(§2) G protein activation was assayed by BRET as previously described. Briefly, plasmids encoding G protein biosensors and receptors of interest were co-transfected into HEK293T cells by using the calcium phosphate method. Forty-eight hours after transfection, cells were washed twice with PBS, detached and resuspended in PBS plus 0.1% (w/v) glucose at room temperature. Cells were then distributed (80 μg of proteins per well) in a 96-well microplate (Optiplate, PerkinElmer). BRET^2 between RLuc8 and GFP10 was measured 1 min after addition of coelenterazine 400a/Deep blue C (5 μM, Gentaur). BRET readings were collected using an Infinite F200 reader (Tecan). The BRET signal was calculated as the ratio of emission of GFP10 (510–540 nm) to RLuc8 (370–450 nm).
(§3) As controls, cells expressing the α2c adrenergic receptor (Gαi/o) were stimulated with UK14304; cells expressing the AT1 angiotensin receptor (Gα11/q) were stimulated with angiotensin II; cells expressing the β2 adrenergic receptor (Gαs) were stimulated with isoproterenol; cells expressing thromboxane A2 receptor (Gα12/13) were stimulated with U46619. Data represent the mean ± S.E.M. of three to six independent experiments. Statistical significance was assessed using Tukey's test (***P < 0.0001).
Background: BRET reads energy transfer from a luciferase to a nearby fluorophore.

The next test has as its system GPR44/CRTH2. As to the kind of experiment: G protein BRET assay, negative control GPR44/CRTH2. The format is cell-based. The settings on record: HEK293T, 100 nM chemerin, 1 minute. Here is the method:
as §2, §3

A further test relates to GPR33. As to the kind of experiment: G protein BRET assay, negative control GPR33. The settings on record: HEK293T, 100 nM chemerin, 1 minute. The format is cell-based. Here is the method: as §2, §3
The test system of a further test is FPR1. As to the kind of experiment: G protein BRET assay, negative control FPR1. The format is cell-based. To be noted: HEK293T, 100 nM chemerin, 1 minute. Here is the method:
as §2, §3

Test [3] has as its system CCRL2. Kind of test: β-arrestin BRET recruitment assay, CCRL2. The format is cell-based, human. To be noted: β-arrestin1-Rluc or β-arrestin2-Rluc, CCRL2-Venus, HEK293T; 100 nM chemerin; 25°C. The protocol:
β-arrestin recruitment was measured by a BRET proximity assay as previously described. Briefly, plasmids encoding Rluc-β-arrestin 2 and receptors fused to Venus were cotransfected into HEK293T cells by using the calcium phosphate method. Twenty-four hours post-transfection, cells were collected and seeded in 96-well microplates (165306, Nunc) and cultured for an additional 24 h. Cells were then rinsed once with PBS and incubated in PBS plus 0.1% (w/v) glucose at 25°C to slow down kinetics of arrestin recruitment and improve temporal resolution. BRET^1 between RLuc and YFP was measured after the addition of coelenterazine h (5 μM, Promega). […] The BRET signal was calculated as the ratio of emission of YFP (520–570 nm) to RLuc (370–480 nm).
Fig 6 Recruitment of β-arrestins by CMKLR1 and GPR1. […] Data represent the mean ± S.E.M. of three independent experiments.

Test [4] has as its system CCRL2. As to the kind of experiment: Intracellular calcium mobilization (aequorin), CCRL2. To be noted: CCRL2, CHO-K1, aequorin. The format is cell-based, human. The protocol: Calcium mobilization was measured by an aequorin-based assay as previously described. Briefly, CHO-K1 cells stably expressing apoaequorin and the receptors of interest were incubated for 4 h in the dark in the presence of 5 μM coelenterazine h (Promega) and then diluted before use to reach the appropriate cell density.
(§4) A. Calcium mobilization was measured in CHO-K1 cells using the aequorin-based functional assay. […] The results were normalized for the basal luminescence of the cells in absence of agonist (0%) and the maximal response obtained for each cell line with 10 μM ATP (100%). […] Data represent the mean ± S.E.M. of three independent experiments C. […] Detection of total ERK1/2 by Western blotting was used to ascertain that an equal amount of material was loaded in each lane (lower panel). A typical experiment out of three performed independently is shown.

In test [5] the test system is CCRL2. Kind of test: ERK1/2 phosphorylation in CHO-K1 cells, CCRL2. In kind it is cell-based, human. To be noted: 300 nM chemerin, immunoblot. The protocol:
CHO-K1 and MEF cells stably expressing receptors of interest were starved for 12–18 h in serum-free medium prior to stimulation. […] Whole cell lysates were resolved on 10% Tris/Tricine polyacrylamide gels and transferred to nitrocellulose membranes. Phosphorylated ERK1/2 and total ERK1/2 were detected by using rabbit polyclonal anti-phospho-ERK1/2 (Cell Signaling #4370, 1:1,000) and anti-ERK1/2 (Cell Signaling #4695S, 1:2,000) antibodies. Chemiluminescent detection was performed using ECL-Plus reagent (Perkin Elmer).
as §4
In general terms: Immunoblotting shows a protein as a band on a membrane.

The next test concerns CMKLR1. To be noted: cited from earlier work.
Description: as §1

Test [6] relates to GPR1. To be noted: ref [13], cited from earlier work.
Description: as §1

Test [7] has as its system leukocyte populations that express CMKLR1. The settings on record: ex vivo; dendritic cells, macrophages and natural killer cells; ref [1],[8]–[10]; cited from earlier work.
Description: as §1

For test [8], the system named is CCRL2. Kind of test: Radiolabelled chemerin internalization (acid-wash), CCRL2. In kind it is cell-based, human. The settings on record: CCRL2, CHO-K1; incubation at 28°C. The protocol:
Cell surface receptor was detected by flow cytometry using a saturating concentration of antibodies specific for CMKLR1 (●), GPR1 (◯) or CCRL2 (△). Results were normalized for the fluorescence of unstimulated cells (100%) and for background fluorescence (0%). Data represent the mean ± S.E.M. of three independent experiments. […] Then, cells were either left at 4°C or shifted to 28°C to allow receptor internalization. After 90 minutes, cells were acid-washed and the amount of radioactivity remaining associated with the cells was measured. Data represent the mean ± S.E.M. of three independent experiments.

In test [9] the target is T1, CCRL2 (human, UniProt O00421 1-344).
T1 sequence (looked up): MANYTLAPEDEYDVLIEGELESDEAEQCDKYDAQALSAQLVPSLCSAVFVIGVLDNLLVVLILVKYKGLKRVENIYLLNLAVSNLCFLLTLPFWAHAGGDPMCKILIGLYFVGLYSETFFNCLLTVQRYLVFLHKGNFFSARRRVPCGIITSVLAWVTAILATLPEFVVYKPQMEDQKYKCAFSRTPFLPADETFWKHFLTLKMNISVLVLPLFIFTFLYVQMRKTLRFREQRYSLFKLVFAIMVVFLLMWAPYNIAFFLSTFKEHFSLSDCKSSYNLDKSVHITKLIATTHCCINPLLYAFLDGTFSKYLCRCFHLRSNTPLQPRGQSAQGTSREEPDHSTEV
Kind of test: cell-based or functional assay.

The target in test [10] is T2, GPR1 (human, UniProt P46091 1-355).
T2 construct: GPR1, human chemerin receptor, expressed on CHO-K1 cells; The functional rows with G protein biosensors (HEK293T, transfected) and with MEF cells also use this molecule; source: CHO-K1, stably expressing (Clone 8), on cells
T2 sequence (looked up): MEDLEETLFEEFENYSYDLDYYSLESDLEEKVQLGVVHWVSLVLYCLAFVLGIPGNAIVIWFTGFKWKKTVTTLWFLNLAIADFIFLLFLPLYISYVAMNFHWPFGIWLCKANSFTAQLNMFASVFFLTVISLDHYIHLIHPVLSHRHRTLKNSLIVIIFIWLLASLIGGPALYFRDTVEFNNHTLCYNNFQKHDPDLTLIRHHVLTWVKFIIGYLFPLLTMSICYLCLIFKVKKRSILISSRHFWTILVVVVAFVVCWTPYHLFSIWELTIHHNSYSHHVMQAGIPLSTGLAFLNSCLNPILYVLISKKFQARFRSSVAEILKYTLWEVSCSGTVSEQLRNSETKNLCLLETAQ
As to the kind of experiment: radioligand binding; competition: CHO-K1 cells expressing the receptor with 0.1 nM [125I]-chemerin as tracer and increasing concentrations of unlabelled chemerin or chemerin 9; 50 mM HEPES pH 7.4, 1 mM CaCl2, 5 mM MgCl2, 250 mM sucrose, 0.5% BSA; 30 min at room temperature; filtration. The settings on record: one partner purified.

Test [11] has as its target T1, CCRL2. The description is as above. The settings on record: one partner purified.

With CCL2: chemokine, the “calcium mobilization and chemotaxis through CCRL2” value with CCRL2 [1] was “promotes calcium mobilization and chemotaxis”.

For CCL7: chemokine, the “calcium mobilization and chemotaxis through CCRL2” value in the test with CCRL2 [1] is “promotes calcium mobilization and chemotaxis”.

Take “Chemerin: small chemotactic protein, natural ligand of CMKLR1; purchased from R&D Systems”: the G protein activation result in the test with CCRL2 [2] was “none of the G proteins tested were activated by GPR1 or CCRL2 upon chemerin stimulation”. Moreover, the “G protein BRET signal (Gαi/o biosensors)” value in the test on GPR44/CRTH2, in the test with GPR33 and in the test with FPR1 was “generated signals of much weaker magnitude” each time. Further, the β-arrestin recruitment entry in the test with CCRL2 [3] was “CCRL2 does not recruit β-arrestins”. Further, the calcium mobilization entry in the test on CCRL2 [4] is “generated no detectable signals”; in the test on GPR1 [6] (GPR1, recombinant cell lines), “activate weakly calcium mobilization in recombinant cell lines”. In the test on CCRL2 [5], the “phosphorylation of ERK1/2” value was “generated no detectable signals”. Further, the “calcium mobilization or ligand internalization” value in the test on CCRL2 [1] (CCRL2, chemerin, ref [11]) is given as “does not induce calcium mobilization or ligand internalization”. In the test with CMKLR1 (introduction, no reference given), the “recruitment of β-arrestin2 to CMKLR1” value is recorded as “induces the recruitment of β-arrestin2 to CMKLR1”. Moreover, the “signaling in cells expressing CMKLR1” value with CMKLR1 (ref [7]) is “inhibits cAMP production and promotes phospholipase C activation, IP3 release, calcium mobilization as well as activation of PI3K and MAPK pathways”. In the test on GPR1 [6], the “down-regulation of GPR1” value is reported as “induces its rapid down-regulation”. The chemotaxis entry in test [7] was “promotes chemotaxis of leukocyte populations that express CMKLR1”.

As to “[^125I]-chemerin: R&DSystems, custom labelling performed by Perkin Elmer; tracer”, the “radioactivity lost after acid-wash (chemerin internalization)” value with CCRL2 [8] is given as “nearly all the radioactivity associated to cells expressing CCLR2 was lost after the acid-wash procedure”.

B1: CCL8: chemokine (protein, UniProt P80075 24-99, looked up)
C-C motif chemokine 8: QPDSVSIPITCCFNVINRKIPIQRLESYTRITNIQCPKEAVIFKTKRGKEVCADPKERWVRDSMKHLDQIFQNLKP
With B1, the “calcium mobilization and chemotaxis through CCRL2” value in the test on CCRL2 [1] is “promotes calcium mobilization and chemotaxis”.

B2: Chemerin (unlabelled) (ligand, human, UniProt Q99969 21-157, looked up)
chain: ELTEAQRRGLQVALEEFHKHPPVQWAFQETSVESAVDTPFPAGIFVRLEFKLQQTSCRKRDWKKPECKVRPNGRKRKCLACIKLGSEDKVLGRLVHCPIETQVLREAEEHQETQCLRVQRAGEDPHSFYFPGQFAFS
notes: chemerin, human; also called full length chemerin; full size chemerin; source: bought: R&D Systems
Regarding B2, in the test with CCRL2 [9], the “t1/2 of down-regulation of the receptor from the cell surface (FACS, CHO-K1, 100 nM chemerin)” value is above 1 h. Also, the pIC50 in the test with GPR1 [10] was 9.9; with CCRL2 [11] it was 9.1.

B3: CCL5: chemokine (protein, UniProt P13501 24-91, looked up)
C-C motif chemokine 5: SPYSSDTTPCCFAYIARPLPRAHIKEYFYTSGKCSNPAVVFVTRKNRQVCANPEKKWVREYINSLEMS
Consider B3, for which, in the test with CCRL2 [1], the “calcium mobilization and chemotaxis through CCRL2” value was “promotes calcium mobilization and chemotaxis”.

As usually defined, the pIC50 is −log10 of the IC50, conventionally taken in molar units. Lower therefore signals a large IC50.
